Measurements taken from US20250387388A1, “COMPOUND AS TRK INHIBITOR AND/OR RET INHIBITOR AND USE THEREOF” (Medinno Pharmaceutical Technology (Zhuhai) Co., Ltd., priority 2022, published 2025).

Experiments:
[1] = target: RET (Homo sapiens (Human), UniProt P07949); test: Inhibitory activity on RET kinase (HTRF KinEASE-TK); type: biochemical; conditions: ATP 16 μM
Excerpt: 3) Formulate 2.5× kinase with 1× kinase reaction buffer.

[2] = system: diabetic foot animal model; test: Diabetic foot animal model (high-fat diet mice, back wound); type: in vivo, C57BL/6 male mice
Excerpt: Twenty 2-month-old normal wild-type C57BL/6 male mice were ordered from Jicai Pharmaceutical and divided into two groups of 10 each. One group was fed a standard diet (SD), and the other group was fed a 60% high-fat diet (HFD) to induce obesity. Both groups were fed under the same conditions for about 6 months. Additionally, five 2-month-old young male mice were ordered to perform subsequent wound modeling and comparison with the SD group (8 months old, 10 mice) and the HFD group (8 months old, 10 mice). Mice were anesthetized with isoflurane, and a razor was used to remove the back hair, exposing the back skin. A marker pen and ruler were used to draw a 1.0 cm×0.5 cm rectangular area on each side of the back. A sterilized surgical scissor was used to cut away the skin in this area without damaging the subcutaneous tissue. After the mice regained consciousness, they were carefully placed back in their cages. The animals were euthanized at specified time intervals after the injury, and the wound tissue was collected for subsequent experiments and analysis. After creating wounds on the left and right sides of the mouse's back, the mice were grouped and administered drugs as indicated in the table below (where Control represents a blank drug control with DMSO+vehicle). The 1228 gel (0.5% or 1%) was administered every 12 hours, with a dose of 50 mg each time. The wounds were photographed and weighed daily (every 24 hours) for 7 days, and then samples were collected at the 7th day. Specific operational details are described in the section “3. Sample Collection and Analysis” below. [table] After anesthesia, the mice were placed on an operation table with their backs extended, and high-definition photographs of the entire back and the local wound area of the mice were taken (including a ruler). […] The body weight of the mice was also measured to analyze the impact of the drug on systemic metabolism. On the seventh day of wound repair after modeling on the mouse's back, the mice were euthanized, and the wound tissue was collected for subsequent experiments and analysis, including tissue from the center of the wound and distal non-wounded control skin. The tissue was embedded in OCT and subjected to cryosectioning for subsequent HE or multiple staining analysis. Mouse skin tissue was placed in an embedding box filled with OCT (Tissue-Tek® O.C.T. Compound, Catalog #4583, Sakura Finetek USA Inc) and laid flat on dry ice to quick-freeze. Once the OCT was fully frozen, the embedding box was transferred to a −20° C. freezer for storage. Before sectioning, the cryostat was pre-cooled to −25° C. […] The flattened tissue sections were attached to glass slides and checked under a microscope for completeness. The sections were left to air-dry at room temperature for 2-3 hours before being stored in a −20° C. freezer. The sections were taken out of the −20° C. freezer and allowed to thaw at room temperature, and the condensation water was dried for 10-20 minutes until completely dry. The sections were then fixed with 500-1000 μL of frozen 4% paraformaldehyde (4% paraformaldehyde prepared by diluting 10 ml of 16% PFA—paraformaldehyde in 30 ml of frozen PBS and stored at 4° C.) for 10 minutes at room temperature. The sections were washed once with dH2O (single distilled water) (incubation<1 minute). After washing, hematoxylin solution was added, and the sections were incubated for 55-60 seconds, then quickly washed three times with running tap water until no blue dye was visible. Eosin solution was added next, and the sections were incubated for 25-30 seconds, then quickly washed three times with running tap water, followed by washing with 70% ethanol once. The sections were dehydrated in 100% ethanol for 5 minutes and then in xylene for 5 minutes. Finally, the sections were coverslipped with a neutral resin, taking care not to trap air bubbles when placing the coverslip with forceps. […]

[3] = target: TRKC (Homo sapiens (Human), UniProt Q16288); test: Inhibitory activity on TRKC (ADP-Glo Kinase Assay)
TRKC, sequence (Q16288 32-839): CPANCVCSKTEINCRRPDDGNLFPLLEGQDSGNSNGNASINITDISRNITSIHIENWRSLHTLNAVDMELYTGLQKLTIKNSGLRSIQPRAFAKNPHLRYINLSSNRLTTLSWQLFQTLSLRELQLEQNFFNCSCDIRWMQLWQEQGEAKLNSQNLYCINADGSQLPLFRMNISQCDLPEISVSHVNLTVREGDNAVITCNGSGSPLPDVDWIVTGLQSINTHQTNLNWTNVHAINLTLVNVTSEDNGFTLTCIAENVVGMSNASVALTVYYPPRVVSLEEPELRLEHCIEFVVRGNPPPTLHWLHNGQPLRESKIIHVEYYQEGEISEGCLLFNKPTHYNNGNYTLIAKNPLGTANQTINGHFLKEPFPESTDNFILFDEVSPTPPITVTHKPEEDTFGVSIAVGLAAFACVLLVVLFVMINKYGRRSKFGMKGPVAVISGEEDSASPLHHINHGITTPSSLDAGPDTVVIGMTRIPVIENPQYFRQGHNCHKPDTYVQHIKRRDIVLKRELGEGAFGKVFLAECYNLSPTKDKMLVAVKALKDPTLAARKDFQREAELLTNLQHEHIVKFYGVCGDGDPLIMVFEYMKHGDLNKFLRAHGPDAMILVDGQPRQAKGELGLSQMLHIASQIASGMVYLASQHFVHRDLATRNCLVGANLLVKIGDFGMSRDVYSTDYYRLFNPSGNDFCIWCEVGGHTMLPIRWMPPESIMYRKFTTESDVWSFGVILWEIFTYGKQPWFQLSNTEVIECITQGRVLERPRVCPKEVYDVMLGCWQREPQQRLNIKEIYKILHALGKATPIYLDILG

RET, sequence (P07949 29-1114): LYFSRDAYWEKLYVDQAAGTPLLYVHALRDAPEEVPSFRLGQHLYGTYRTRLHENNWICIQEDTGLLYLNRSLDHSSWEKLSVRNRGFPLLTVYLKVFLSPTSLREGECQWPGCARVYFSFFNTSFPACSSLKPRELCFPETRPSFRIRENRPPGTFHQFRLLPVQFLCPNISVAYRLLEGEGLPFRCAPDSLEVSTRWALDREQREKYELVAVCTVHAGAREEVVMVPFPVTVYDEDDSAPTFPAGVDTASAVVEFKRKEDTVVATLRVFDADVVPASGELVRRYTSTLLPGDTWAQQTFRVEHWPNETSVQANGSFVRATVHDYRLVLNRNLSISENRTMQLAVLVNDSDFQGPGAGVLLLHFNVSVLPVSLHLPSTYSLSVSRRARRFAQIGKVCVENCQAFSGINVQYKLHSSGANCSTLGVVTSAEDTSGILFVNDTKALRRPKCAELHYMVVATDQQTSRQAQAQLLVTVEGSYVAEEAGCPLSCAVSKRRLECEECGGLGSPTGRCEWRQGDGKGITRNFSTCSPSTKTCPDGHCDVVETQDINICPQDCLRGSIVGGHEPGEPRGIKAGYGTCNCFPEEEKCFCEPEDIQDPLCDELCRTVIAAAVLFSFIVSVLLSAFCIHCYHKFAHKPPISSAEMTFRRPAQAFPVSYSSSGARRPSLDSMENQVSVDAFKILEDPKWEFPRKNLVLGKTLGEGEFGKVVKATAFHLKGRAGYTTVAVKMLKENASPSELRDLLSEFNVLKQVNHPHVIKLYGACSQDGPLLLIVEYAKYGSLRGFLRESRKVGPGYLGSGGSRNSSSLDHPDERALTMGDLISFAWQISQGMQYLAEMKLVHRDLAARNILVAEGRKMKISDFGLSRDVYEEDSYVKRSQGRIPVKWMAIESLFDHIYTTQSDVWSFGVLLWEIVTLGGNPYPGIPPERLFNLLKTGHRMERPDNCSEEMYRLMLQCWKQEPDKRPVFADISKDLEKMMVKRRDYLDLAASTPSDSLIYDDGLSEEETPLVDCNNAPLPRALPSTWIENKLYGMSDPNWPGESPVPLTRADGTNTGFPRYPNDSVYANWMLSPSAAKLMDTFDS

Structure (SMILES)	IC50 [1] [nM]	Epithelial healing (wound non-healing distance) ([2]; 1% MDI-1228 gel, HFD group)	Area of green lipid droplets in the wound center (Bodipy staining) ([2]; MDI-1228 gel 50 mg every 12 hours, 7 days)	Size of the adipocytes in the wound center (HE staining) ([2]; MDI-1228 gel 50 mg every 12 hours, 7 days, vs. control)	IC50 [3] [nM]	Lipolysis in the diabetic foot model ([2]; conclusion / summary statement)	Myofibroblasts at the wound ([2]; conclusion / summary statement)	Wound healing ([2]; conclusion / summary statement)
CCc1cc(O)c(F)cc1-c1ccc2c(-c3nc4c([nH]3)CN(C(=O)N3CC[C@H](O)C3)C4)n[nH]c2c1 [MDI-1228, (S)-(2-(6-(2-ethyl-5-fluoro-4-hydroxyphenyl)-1H-indazol-3-yl)-4,6-dihydropyrrolo[3,4-d]imidazol-5-(1H)-yl)(3-hydroxylpyrrolidin-1-yl)ketone]	0.62	could effectively promote epithelial healing	significantly reduced	significantly reduced	0.6			
CCc1cc(O)c(F)cc1-c1ccc2c(-c3nc4c([nH]3)CN(C(=O)NCC(O)CCl)C4)n[nH]c2c1 (stereo not shown) [MDI-1288]	3.43				0.59	can significantly promote lipolysis	significantly increase the proportion of myofibroblasts	effectively promote wound healing
